Laboratory results reported in US20070032409A1, “Bradykinin receptor antagonists and uses thereof” (VANDERBILT UNIVERSITY, priority 2005, published 2007).
Like-named read-outs stand apart in the source and are kept apart here.

How the values were obtained:
[1] = test system: adult patients undergoing elective cardiac surgery requiring CPB; assay: Hemodynamic response (MAP, heart rate) to protamine infusion, double-blind randomized study; assay type: in vivo, human
Description: The present inventors conducted a double-blind randomized study in sixteen adult male patients undergoing elective cardiac surgery requiring CPB and taking an angiotensin-converting enzyme inhibitor preoperatively. […] Mean arterial pressure (MAP) and tissue-type plasminogen activator (t-PA) activity were measured intraoperatively and before and after protamine.
Sixteen adult patients undergoing elective cardiac surgery requiring CPB and taking an ACE inhibitor preoperatively were studied. Patients were excluded if they had evidence of coagulopathy (INR greater than 1.7), underwent emergency surgery, underwent redo-CABG, had taken a glycoprotein IIb/IIIa antagonist within 2 days of surgery or had renal insufficiency (baseline creatinine>1.5 mg/dl). All patients provided written informed consent.

[2] = test system: adult patients undergoing elective cardiac surgery requiring CPB; assay: Safety: intra- and postoperative patient characteristics; assay type: in vivo, human; details: HOE 140 group N=8
Description: Patients were transfused according to the following guidelines: packed red blood cells (PRBC) were transfused for a hematocrit less than 20% during CPB and for a hematocrit less than 25% after CPB, CPB time >120 min, or evidence of end-organ dysfunction. Platelets were transfused in 5-U sets for ongoing microvascular bleeding despite a normalized ACT. Fresh frozen plasma (FFP) was given for continued bleeding only after platelets were given. Transfusion requirements were recorded from the beginning of surgery until hospital discharge.

[3] = test system: tissue factor and plasminogen activator inhibitor-1; details: cited from earlier work
[4] = test system: pancreatitis-induced hypotension; details: dog, in vivo; cited from earlier work
[5] = test system: rats; details: after i.v. bradykinin, endogenously-released kinins, induction of acute pancreatitis; cited from earlier work
[6] = test system: bradykinin-induced hypotension; details: correlated with antagonism of bradykinin-induced hypotension; cited from earlier work
[7] = test system: hypotensive transgenic mice that harbor the B2 receptor; details: mouse, in vivo; cited from earlier work
[8] = test system: vasodilation in response to exogenous bradykinin; details: HOE 140 100 μg/kg; cited from earlier work
[9] = test system: t-PA antigen; assay: t-PA antigen in arterial blood, 2-site ELISA
[10] = test system: plasminogen activator inhibitor -1 (PAI-1) antigen; assay: PAI-1 antigen in arterial blood, 2-site ELISA; details: HOE 140 group N=8
[11] = test system: tissue-type plasminogen activator (t-PA) activity; assay: t-PA activity in arterial blood, chromogenic substrate kit
[12] = target: T1, carboxypeptidase N (kininase I) (Homo sapiens, UniProt P15169); details: cited from earlier work
T1 sequence (P15169 21-458): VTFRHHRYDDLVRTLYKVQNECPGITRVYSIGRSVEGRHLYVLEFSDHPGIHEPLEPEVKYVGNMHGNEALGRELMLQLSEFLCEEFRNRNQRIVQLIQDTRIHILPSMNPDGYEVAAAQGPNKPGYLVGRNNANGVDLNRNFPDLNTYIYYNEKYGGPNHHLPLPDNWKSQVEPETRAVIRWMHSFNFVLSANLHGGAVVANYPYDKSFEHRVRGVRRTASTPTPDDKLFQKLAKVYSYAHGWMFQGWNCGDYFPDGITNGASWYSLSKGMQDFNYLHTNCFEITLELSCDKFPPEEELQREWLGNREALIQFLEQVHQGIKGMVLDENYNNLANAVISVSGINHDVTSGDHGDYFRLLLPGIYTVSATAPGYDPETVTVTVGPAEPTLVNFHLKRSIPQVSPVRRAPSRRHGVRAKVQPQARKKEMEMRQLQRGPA
T1 sequence (P22792 22-545 partner): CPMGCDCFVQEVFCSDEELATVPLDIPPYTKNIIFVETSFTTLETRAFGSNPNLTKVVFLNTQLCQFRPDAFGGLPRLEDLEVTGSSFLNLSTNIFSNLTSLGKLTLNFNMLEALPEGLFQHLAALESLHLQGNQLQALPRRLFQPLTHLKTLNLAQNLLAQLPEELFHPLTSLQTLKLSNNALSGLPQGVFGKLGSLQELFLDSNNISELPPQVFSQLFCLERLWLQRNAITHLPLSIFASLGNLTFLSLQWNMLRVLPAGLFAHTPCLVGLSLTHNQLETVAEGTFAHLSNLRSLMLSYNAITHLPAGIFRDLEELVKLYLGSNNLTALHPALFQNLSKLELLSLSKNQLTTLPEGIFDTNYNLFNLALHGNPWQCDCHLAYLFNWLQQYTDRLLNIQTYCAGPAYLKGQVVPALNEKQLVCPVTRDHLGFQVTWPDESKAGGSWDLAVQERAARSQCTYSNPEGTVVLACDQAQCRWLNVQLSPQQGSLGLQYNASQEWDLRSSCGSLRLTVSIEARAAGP

[13] = target: angiotensin-converting enzyme (ACE) (Homo sapiens, UniProt P12821); details: cited from earlier work
[14] = target: neutral endopeptidase 24.11 (Homo sapiens, UniProt P08473); details: cited from earlier work
[15] = target: aminopeptidase M (Homo sapiens, UniProt P15144); details: cited from earlier work
[16] = cited from earlier work
[17] = test system: bradykinin; assay: Arterial bradykinin concentrations before and after protamine, enzyme immunoassay; details: all patients; for bradykinin concentration after protamine: P=0.006
[18] = HOE 140 group N=8, mean±SD, in beats/min (unit assumed)
[19] = protamine 250 mg over 8 min after CPB

Sequence of aminopeptidase M (P15144 whole entry, species assumed): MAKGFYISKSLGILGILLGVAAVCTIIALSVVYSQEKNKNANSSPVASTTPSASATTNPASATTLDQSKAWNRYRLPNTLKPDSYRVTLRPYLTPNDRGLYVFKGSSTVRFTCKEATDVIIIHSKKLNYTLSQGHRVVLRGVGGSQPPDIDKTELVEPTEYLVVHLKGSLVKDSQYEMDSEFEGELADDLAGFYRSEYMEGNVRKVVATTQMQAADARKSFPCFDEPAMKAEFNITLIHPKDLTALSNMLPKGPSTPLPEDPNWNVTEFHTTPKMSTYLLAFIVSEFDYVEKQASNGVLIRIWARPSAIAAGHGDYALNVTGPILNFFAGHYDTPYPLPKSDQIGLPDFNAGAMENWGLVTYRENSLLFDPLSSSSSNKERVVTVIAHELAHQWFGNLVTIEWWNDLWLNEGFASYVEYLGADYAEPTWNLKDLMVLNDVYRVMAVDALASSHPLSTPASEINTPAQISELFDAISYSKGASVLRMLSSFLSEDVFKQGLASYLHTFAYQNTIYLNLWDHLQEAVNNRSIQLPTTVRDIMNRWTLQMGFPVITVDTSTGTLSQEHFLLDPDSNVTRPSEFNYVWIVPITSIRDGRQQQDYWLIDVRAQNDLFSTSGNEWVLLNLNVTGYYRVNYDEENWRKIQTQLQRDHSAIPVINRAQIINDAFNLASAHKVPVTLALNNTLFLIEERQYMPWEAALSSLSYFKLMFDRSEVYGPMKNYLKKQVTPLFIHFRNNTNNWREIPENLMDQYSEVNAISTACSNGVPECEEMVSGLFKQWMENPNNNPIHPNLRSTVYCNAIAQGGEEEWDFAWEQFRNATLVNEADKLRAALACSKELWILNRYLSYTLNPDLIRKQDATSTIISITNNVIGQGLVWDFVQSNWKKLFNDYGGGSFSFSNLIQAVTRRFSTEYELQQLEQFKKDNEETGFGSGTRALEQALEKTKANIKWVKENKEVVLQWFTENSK
Sequence of neutral endopeptidase 24.11 (P08473 whole entry, species assumed): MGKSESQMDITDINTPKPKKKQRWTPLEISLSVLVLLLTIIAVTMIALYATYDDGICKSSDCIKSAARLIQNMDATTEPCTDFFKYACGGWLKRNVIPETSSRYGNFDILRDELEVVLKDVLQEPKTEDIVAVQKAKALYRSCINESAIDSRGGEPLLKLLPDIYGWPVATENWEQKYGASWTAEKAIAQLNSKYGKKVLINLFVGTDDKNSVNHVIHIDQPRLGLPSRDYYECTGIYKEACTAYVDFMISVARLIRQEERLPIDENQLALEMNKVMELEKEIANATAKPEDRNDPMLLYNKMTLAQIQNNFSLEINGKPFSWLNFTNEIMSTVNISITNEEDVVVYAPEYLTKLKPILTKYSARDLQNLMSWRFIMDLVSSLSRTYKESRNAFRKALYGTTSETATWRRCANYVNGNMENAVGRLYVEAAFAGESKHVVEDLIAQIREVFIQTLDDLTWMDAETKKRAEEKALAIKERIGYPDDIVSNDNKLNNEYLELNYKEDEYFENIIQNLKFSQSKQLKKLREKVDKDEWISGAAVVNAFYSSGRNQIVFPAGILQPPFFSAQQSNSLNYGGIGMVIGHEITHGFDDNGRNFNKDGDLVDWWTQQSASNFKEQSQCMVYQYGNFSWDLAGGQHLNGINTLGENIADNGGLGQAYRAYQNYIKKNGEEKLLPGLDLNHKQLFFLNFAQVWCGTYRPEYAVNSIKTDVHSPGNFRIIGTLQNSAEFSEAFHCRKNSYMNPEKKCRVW
Sequence of angiotensin-converting enzyme (ACE) (P12821 30-1306, species assumed): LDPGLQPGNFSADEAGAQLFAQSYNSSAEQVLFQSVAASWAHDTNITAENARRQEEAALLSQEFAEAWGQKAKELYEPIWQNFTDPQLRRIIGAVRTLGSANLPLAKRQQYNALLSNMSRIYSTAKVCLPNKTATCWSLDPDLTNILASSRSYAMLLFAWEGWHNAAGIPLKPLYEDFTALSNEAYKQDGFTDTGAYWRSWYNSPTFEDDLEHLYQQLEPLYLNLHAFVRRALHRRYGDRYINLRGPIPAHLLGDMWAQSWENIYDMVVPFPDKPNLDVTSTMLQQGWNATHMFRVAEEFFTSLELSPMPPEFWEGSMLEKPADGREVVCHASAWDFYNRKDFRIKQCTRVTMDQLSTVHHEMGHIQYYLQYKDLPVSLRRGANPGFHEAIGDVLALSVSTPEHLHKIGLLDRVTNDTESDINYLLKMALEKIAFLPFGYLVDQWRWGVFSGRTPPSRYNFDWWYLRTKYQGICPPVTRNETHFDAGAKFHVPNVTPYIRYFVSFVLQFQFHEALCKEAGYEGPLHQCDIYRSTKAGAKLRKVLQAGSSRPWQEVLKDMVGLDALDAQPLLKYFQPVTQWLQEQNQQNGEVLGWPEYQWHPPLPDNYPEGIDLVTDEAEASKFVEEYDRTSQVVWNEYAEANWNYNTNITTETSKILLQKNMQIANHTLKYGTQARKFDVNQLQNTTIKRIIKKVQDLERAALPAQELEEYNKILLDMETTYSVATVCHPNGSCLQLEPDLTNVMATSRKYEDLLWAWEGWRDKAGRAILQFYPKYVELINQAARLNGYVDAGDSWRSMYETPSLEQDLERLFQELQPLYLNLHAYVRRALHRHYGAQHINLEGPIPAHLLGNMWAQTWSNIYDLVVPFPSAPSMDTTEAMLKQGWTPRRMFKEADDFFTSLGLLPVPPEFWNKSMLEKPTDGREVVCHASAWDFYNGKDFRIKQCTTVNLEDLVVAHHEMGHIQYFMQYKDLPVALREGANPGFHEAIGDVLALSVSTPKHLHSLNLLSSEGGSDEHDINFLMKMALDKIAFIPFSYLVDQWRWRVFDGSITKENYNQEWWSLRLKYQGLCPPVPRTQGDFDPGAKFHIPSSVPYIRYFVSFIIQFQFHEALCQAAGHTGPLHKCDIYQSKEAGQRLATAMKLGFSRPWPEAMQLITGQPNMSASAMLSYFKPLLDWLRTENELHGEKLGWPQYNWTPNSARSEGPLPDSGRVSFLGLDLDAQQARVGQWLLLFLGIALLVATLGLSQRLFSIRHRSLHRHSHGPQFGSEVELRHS

NC(N)=NCCC[C@@H](N)C(=O)N[C@@H](CCCN=C(N)N)C(=O)N1CCC[C@H]1C(=O)N1C[C@H](O)C[C@H]1C(=O)NCC(=O)N[C@@H](Cc1cccs1)C(=O)N[C@@H](CO)C(=O)N1Cc2ccccc2C[C@@H]1C(=O)N1[C@H](C(=O)N[C@@H](CCCN=C(N)N)C(=O)O)C[C@@H]2CCCC[C@@H]21 [HOE 140]
MAP during protamine infusion (nadir) ([1]; HOE 140 100 μg/kg i.v. before protamine, N=8, mean±SD): 69.6±3.4 mmHg | MAP at the start of the protamine infusion (pre-protamine) ([1]; HOE 140 100 μg/kg i.v. over one-half hour at end of CPB before protamine, N=8, mean±SD): 74.3±10.6 mmHg | heart rate after protamine [1, 18]: 81.0±14.0 | heart rate prior to protamine [1, 18]: 91.4±9.5 | effect on decrease in MAP during protamine infusion ([1]; P=0.022, ANOVA, versus saline): significantly blunted | reduction of mean arterial pressure by protamine ([1]; in the presence of HOE 140): about 6% | CT 4 hours (chest tube output) [2]: 299.4 ± 233.0 mL | CT 24 hours (chest tube output) [2]: 759.6 ± 276.4 mL | Fresh frozen plasma transfusion [2]: 0.4 ± 1.1 Units | New onset atrial fibrillation [2]: 1(12.5) N(%) | PRBC transfusion [2]: 4.4 ± 4.0 Units | Platelet transfusion [2]: 275 ± 177 mL | Time to extubation >10 hours [2]: 2(25) N(%) | effect on bradykinin-increased expression of tissue factor and PAI-1 [3]: suppressed | effect on pancreatitis-induced hypotension [4]: improvement of the hypotension in some animals | effect on release of bradykinin and beta-endorphin [4]: inhibited | effect on decreases in blood pressure [5]: blocks | effect on blood pressure [6]: increased blood pressure | effect on blood pressure [7]: restoring blood pressure to normal levels | effect on vasodilation in response to exogenous bradykinin [8]: prevents vasodilation | t-PA antigen after protamine administration ([9]; HOE 140 group N=8): 22.7 ± 9.1 ng/mL | t-PA antigen after study drug infusion, before protamine ([9]; HOE 140 group N=8): 20.1 ± 6.1 ng/mL | t-PA antigen before study drug infusion ([9]; HOE 140 group, intraoperative, N=8): 23.4 ± 12.6 ng/mL | PAI-1 antigen after protamine administration [10]: 27.4 ± 15.5 ng/mL | PAI-1 antigen before protamine administration [10]: 20.2 ± 17.1 ng/mL | PAI-1 antigen on postoperative day 1 [10]: 32.4 ± 10.1 ng/mL | t-PA activity, intraoperative ([11]; 60 min after initiation of CPB, prior to receiving HOE 140, N=8): 3.59±0.88 IU/ml | t-PA activity, pre-protamine ([11]; after HOE 140 administration (100 μg/kg i.v.), before protamine, N=8): 1.67±1.18 IU/ml | t-PA activity, post-protamine ([11]; after protamine infusion in HOE 140 group, N=8): 0.77±0.74 IU/ml | t-PA activity, baseline ([11]; before initiation of CPB, prior to HOE 140, N=8): 0.42±0.29 IU/ml | change in t-PA activity ([11]; during HOE 140 administration, P=0.036 compared to saline): −1.92±0.94 IU/ml

Protamine: highly basic polycationic polypeptide given at the end of CPB to reverse the anticoagulation effects of heparin (SEQ ID NO:1) (MARYRCCRSQSRSRYYRQRQRSRRRRRRSCQTRRRAMRCCRPRYRPRCRRH)
inhibition of carboxypeptidase N (kininase I) [12]: inhibits | inhibition of angiotensin-converting enzyme (ACE) [13]: does not inhibit | inhibition of neutral endopeptidase 24.11 [14]: does not inhibit | inhibition of aminopeptidase M [15]: does not inhibit | time to neutralization of heparin ([16]; after i.v. administration): ≤ 5 min | heparin activity neutralized per mg of protamine sulfate ([16]; heparin derived from intestinal mucosa): about 115 USP units | heparin activity neutralized per mg of protamine sulfate ([16]; heparin derived from lung tissue): approximately 90 USP units | bradykinin concentration before protamine [17]: 6.3±4.3 finol/ml | bradykinin concentration after protamine [17]: 12.2±9.8 finol/ml | bradykinin concentration before protamine [17, 19]: 6.3 ± 4.3 fmol/mL | bradykinin concentration after protamine [17, 19]: 12.2 ± 9.8 fmol/mL
